Assay results taken from patent US20220401411A1, “ZAFIRLUKAST DERIVATIVES FOR USE AS CONTRACEPTIVE AGENTS” (Rigshospitalet, priority 2019, published 2022).

Biological target: T1, human CatSper (Homo sapiens, UniProt Q7RTX7+Q86XQ3+Q8NEC5+Q96P56)
T1 construct: isolated motile sperm cells from freshly ejaculated semen samples of healthy human donors; endogenous in cells; host or cells: motile human sperm cells from ejaculates of healthy donors (swim-up)
Assay: Inhibition of CatSper activation in human sperm cells, Ca2+-fluorophore plate reader assay
Format: cell-based
Details: for Inhibition of activation of human CatSper by progesterone / Inhibition of activation of human CatSper by intracellular alkalization via NH4Cl: low μM doses, human sperm cells, [Ca2+]i fluorescence; for Inhibition of activation of human CatSper by progesterone: 500 nM progesterone; for Inhibition of activation of human CatSper by intracellular alkalization via NH4Cl: 3 mM NH4Cl; for IC50: motile human sperm cells (swim-up), Ca2+-fluorophore, CatSper activated by 500 nM progesterone, dose inhibition curve, read-out: IC50, inhibition of progesterone-induced signals through CatSper
Source text: (§1) Isolated live and motile human sperm cells were loaded with a Ca^2+-sensitive fluorophore, washed and aliquoted to a 384-well plate placed in a fluorescence plate reader. Readouts in ΔF/F0 (%) on the y-axis reflect the intracellular concentration of Ca^2+ ([Ca^2+],) in the sperm cells as a function of time (FIG. 1, 2, 4) or dose of zafirlukast (FIG. 3).
After measuring the baseline fluorescence for 80s serially diluted doses of zafirlukast as well as a negative buffer control (FIGS. 1 and 4) were added to the sperm cells. Hereafter the measurement was continued for a few minutes before a second addition of 500 nM progesterone (FIG. 1) or 3 mM NH4Cl (FIG. 4) to activate CatSper. […] CatSper-signals induced by 500 nM progesterone (FIG. 2) in the presence of serially diluted doses of zafirlukast are used for the dose inhibition curve for zafirlukast on progesterone-induced signals through CatSper (FIG. 3).
as §1, with “5, 6, 8)” for “1, 2, 4)”, “aniline derivate” for “zafirlukast”, “7).” for “3).”
After measuring the baseline fluorescence for 80s serially diluted doses of aniline derivative as well as a negative buffer control (FIGS. 5 and 8) were added to the sperm cells. Hereafter the measurement was continued for a few minutes before a second addition of 500 nM progesterone (FIG. 5) or 3 mM NH4Cl (FIG. 8) to activate CatSper. […] CatSper-signals induced by 500 nM progesterone (FIG. 6) in the presence of serially diluted doses of the aniline derivative are used for the dose inhibition curve for aniline derivative on progesterone-induced signals through CatSper (FIG. 7).
(§2) To assess the effect of zafirlukast on CatSper in human sperm cells, we first isolated motile sperm cells from freshly ejaculated semen samples of healthy human donors through the swim-up method. Then we loaded these sperm cells with a Ca^2+-fluorophore, i.e. a molecule that emits light more intensively when [Ca^2+], increases. Hereafter we aliquoted these fluorophore-loaded sperm cells to the wells of micro-well plates and inserted the plate into a fluorescence plate reader, that measures the light emitted from the Ca^2+-fluorophore. After measuring the baseline fluorescence for 80s we added to the wells serially diluted doses of zafirlukast (FIGS. 1 and 4). Hereafter we continued the measurement for a few minutes before a second addition of 500 nM progesterone (FIG. 1) or 3 mM NH4Cl (FIG. 4) to activate CatSper.
as §2, with “the aniline derivative” for “zafirlukast”, “[Ca^2*],” for “[Ca^2+],”, “5” for “1”, “8).” for “4).”, “5)” for “1)”, “8)” for “4)”

COc1cc(C(=O)NS(=O)(=O)c2ccccc2C)ccc1Cc1cn(C)c2ccc(NC(=O)OC3CCCC3)cc12 [zafirlukast]
Inhibition of activation of human CatSper by progesterone: inhibits the activation of human CatSper | Inhibition of activation of human CatSper by intracellular alkalization via NH4Cl: inhibits the activation of human CatSper | IC50: ~2200 nM

COc1cc(C(=O)NS(=O)(=O)c2ccccc2C)ccc1Cc1cn(C)c2ccc(N)cc12 [aniline derivative]
Inhibition of activation of human CatSper by progesterone: inhibits the activation of human CatSper | Inhibition of activation of human CatSper by intracellular alkalization via NH4Cl: inhibits the activation of human CatSper | IC50: ~900 nM
